In PMC5974720, “Urate transport function of rat sodium‐dependent nucleobase transporter 1” (Physiological Reports, 2018):
Each block holds one molecule with its values, some of them ahead of it.

Tests used:
[1] = biological target: T1, rat sodium-dependent nucleobase transporter 1 (rSNBT1) (Rattus norvegicus, UniProt D2KX48); assay: inhibition of rSNBT1-specific […]urate uptake in stably transfected MDCKII cells; assay type: cell-based
T1 construct: gene Slc23a4
T1 sequence (D2KX48 1-614): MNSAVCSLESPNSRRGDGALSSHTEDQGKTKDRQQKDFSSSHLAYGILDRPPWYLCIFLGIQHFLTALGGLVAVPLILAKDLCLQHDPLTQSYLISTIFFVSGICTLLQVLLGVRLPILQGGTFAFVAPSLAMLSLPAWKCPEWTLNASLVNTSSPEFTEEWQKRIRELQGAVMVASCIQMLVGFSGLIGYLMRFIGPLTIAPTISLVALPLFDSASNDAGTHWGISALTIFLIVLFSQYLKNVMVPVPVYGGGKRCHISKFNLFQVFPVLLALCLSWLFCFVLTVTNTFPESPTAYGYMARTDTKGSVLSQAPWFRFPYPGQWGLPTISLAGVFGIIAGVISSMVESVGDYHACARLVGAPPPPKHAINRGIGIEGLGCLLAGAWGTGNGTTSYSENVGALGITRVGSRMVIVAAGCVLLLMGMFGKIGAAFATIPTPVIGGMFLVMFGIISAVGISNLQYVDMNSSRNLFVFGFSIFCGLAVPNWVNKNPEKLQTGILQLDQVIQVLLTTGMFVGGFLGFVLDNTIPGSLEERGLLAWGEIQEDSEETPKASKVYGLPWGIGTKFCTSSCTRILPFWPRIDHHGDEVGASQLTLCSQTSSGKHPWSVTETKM

[2] = biological target: T2, rat breast cancer resistance protein (rBCRP) (Rattus norvegicus, UniProt Q80W57); assay: inhibition of rBCRP-mediated urate efflux in HEK293 cells co-expressing rSNBT1 ([…]); assay type: cell-based
T2 construct: gene Abcg2
T2 sequence (Q80W57 1-657): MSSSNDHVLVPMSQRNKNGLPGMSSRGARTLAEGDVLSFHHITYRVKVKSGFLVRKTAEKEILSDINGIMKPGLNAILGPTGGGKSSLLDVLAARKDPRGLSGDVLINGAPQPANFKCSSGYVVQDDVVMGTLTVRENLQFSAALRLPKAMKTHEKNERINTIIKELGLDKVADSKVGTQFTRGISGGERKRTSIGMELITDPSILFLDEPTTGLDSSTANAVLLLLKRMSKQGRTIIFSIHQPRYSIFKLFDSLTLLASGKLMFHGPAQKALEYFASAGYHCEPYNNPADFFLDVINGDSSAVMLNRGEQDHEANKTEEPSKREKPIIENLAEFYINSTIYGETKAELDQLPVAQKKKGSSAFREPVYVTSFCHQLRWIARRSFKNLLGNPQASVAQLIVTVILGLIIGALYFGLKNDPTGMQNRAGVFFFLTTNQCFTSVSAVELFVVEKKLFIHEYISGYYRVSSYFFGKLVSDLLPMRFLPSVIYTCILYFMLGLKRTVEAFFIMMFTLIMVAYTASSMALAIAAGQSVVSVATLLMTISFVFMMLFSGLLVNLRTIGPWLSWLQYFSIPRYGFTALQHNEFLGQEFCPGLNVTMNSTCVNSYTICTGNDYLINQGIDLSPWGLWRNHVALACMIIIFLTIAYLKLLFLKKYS

[3] = biological target: T1, rat sodium-dependent nucleobase transporter 1 (rSNBT1); assay: inhibition of rSNBT1-specific […]urate uptake in stably transfected MDCKII cells; [3H]uracil uptake in transfected HEK293 cells; assay type: cell-based
[4] = biological target: T3, human URAT1 (urate transporter 1) (Homo sapiens, UniProt Q96S37)
T3 construct: gene SLC22A12
T3 sequence (Q96S37 1-553): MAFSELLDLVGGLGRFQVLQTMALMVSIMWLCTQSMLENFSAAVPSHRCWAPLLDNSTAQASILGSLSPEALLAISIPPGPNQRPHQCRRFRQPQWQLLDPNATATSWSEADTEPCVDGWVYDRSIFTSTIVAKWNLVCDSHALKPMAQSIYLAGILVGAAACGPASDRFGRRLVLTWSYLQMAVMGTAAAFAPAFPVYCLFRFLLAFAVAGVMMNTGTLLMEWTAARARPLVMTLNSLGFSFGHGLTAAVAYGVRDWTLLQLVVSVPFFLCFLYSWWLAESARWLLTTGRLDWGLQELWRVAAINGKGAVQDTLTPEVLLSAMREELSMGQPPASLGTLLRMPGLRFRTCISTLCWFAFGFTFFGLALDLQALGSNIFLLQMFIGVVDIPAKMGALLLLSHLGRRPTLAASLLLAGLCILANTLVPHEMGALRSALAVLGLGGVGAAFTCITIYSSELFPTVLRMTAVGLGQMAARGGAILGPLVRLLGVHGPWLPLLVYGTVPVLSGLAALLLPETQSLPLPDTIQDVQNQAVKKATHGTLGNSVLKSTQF

human OAT3 = biological target: T4, human OAT3 (Homo sapiens, UniProt Q8TCC7); assay: […]urate uptake in transiently transfected HEK293 cells
T4 construct: gene SLC22A8
T4 sequence (Q8TCC7 1-542): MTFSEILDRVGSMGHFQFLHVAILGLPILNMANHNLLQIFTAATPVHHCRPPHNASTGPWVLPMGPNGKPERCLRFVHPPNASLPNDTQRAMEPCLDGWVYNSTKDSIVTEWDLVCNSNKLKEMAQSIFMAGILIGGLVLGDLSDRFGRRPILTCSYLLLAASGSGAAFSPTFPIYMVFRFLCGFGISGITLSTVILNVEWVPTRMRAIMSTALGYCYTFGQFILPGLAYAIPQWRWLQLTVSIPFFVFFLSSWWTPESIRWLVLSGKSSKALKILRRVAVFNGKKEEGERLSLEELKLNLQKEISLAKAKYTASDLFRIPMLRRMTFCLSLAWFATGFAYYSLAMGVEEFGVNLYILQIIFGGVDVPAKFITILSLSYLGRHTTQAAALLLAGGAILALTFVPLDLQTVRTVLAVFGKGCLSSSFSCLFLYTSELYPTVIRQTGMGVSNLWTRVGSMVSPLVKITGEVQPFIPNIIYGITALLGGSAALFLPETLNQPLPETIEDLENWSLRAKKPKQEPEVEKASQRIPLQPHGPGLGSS

[5] = biological target: T5, human organic anion transporter 1 (OAT1) (Homo sapiens, UniProt Q4U2R8); assay: as above; assay type: cell-based
T5 construct: gene SLC22A6
T5 sequence (Q4U2R8 1-563): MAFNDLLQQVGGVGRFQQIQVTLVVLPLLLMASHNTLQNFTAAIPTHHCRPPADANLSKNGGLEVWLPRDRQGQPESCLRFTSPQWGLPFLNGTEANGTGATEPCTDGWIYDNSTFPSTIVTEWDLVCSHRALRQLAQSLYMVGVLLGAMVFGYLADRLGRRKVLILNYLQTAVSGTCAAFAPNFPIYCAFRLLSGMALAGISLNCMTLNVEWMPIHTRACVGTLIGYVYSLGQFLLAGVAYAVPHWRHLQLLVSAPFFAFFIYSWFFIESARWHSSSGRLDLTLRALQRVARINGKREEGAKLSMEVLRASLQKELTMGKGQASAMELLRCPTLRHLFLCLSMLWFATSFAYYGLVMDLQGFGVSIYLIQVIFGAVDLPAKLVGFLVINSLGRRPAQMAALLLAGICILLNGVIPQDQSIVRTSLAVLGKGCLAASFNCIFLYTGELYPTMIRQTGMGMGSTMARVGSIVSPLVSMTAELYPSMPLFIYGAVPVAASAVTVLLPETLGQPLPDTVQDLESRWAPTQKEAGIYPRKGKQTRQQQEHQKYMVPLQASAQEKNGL

[6] = substrate: O=c1[nH]c(=O)c2[nH]c(=O)[nH]c2[nH]1; assay: cells, lysate or membranes; assay type: cell-based, Rattus norvegicus; settings: Na+ likely to share the same substrate recognition site with uracil

Molecule: Nc1nc2nc[nH]c2c(=O)[nH]1 [Guanine]
- IC50 [1]: 2.7 ± 0.8 µM

- IC50 ([1]; read-out: IC50): 10.1 ± 2.4 µM
Molecule: O=c1[nH]cnc2nc[nH]c12 [Hypoxanthine]

Molecule: COc1ccc2c3c([nH]c2c1)[C@H](CC(C)C)N1C(=O)[C@H](CCC(=O)OC(C)(C)C)NC(=O)[C@@H]1C3 [Ko143]
- inhibition of rBCRP-mediated urate efflux in HEK293 cells co-expressing rSNBT1 [2]: Ko143 was effective in inhibiting rBCRP‐mediated urate efflux almost completely at that concentration

- IC50 ([1]; read-out: IC50): 8.8 ± 2.5 µM
Molecule: Cc1c[nH]c(=O)[nH]c1=O [Thymine]

- IC50 [3]: 28.4 ± 8.5 µM
Molecule: O=c1cc[nH]c(=O)[nH]1 [Uracil]

Molecule: O=c1[nH]c(=O)c2[nH]c(=O)[nH]c2[nH]1 [urate]
- [14C]urate uptake in transiently transfected HEK293 cells [4]: When transiently introduced into HEK293 cells, all those transporters raised urate uptake, but to lesser extents than rSNBT1.
- [14C]urate uptake in transiently transfected HEK293 cells (human OAT3): When transiently introduced into HEK293 cells, all those transporters raised urate uptake, but to lesser extents than rSNBT1.
- [14C]urate uptake in transiently transfected HEK293 cells [5]: When transiently introduced into HEK293 cells, all those transporters raised urate uptake, but to lesser extents than rSNBT1.

B1: rat sodium-dependent nucleobase transporter 1 (rSNBT1) (Rattus norvegicus) (protein)
chain: MNSAVCSLESPNSRRGDGALSSHTEDQGKTKDRQQKDFSSSHLAYGILDRPPWYLCIFLGIQHFLTALGGLVAVPLILAKDLCLQHDPLTQSYLISTIFFVSGICTLLQVLLGVRLPILQGGTFAFVAPSLAMLSLPAWKCPEWTLNASLVNTSSPEFTEEWQKRIRELQGAVMVASCIQMLVGFSGLIGYLMRFIGPLTIAPTISLVALPLFDSASNDAGTHWGISALTIFLIVLFSQYLKNVMVPVPVYGGGKRCHISKFNLFQVFPVLLALCLSWLFCFVLTVTNTFPESPTAYGYMARTDTKGSVLSQAPWFRFPYPGQWGLPTISLAGVFGIIAGVISSMVESVGDYHACARLVGAPPPPKHAINRGIGIEGLGCLLAGAWGTGNGTTSYSENVGALGITRVGSRMVIVAAGCVLLLMGMFGKIGAAFATIPTPVIGGMFLVMFGIISAVGISNLQYVDMNSSRNLFVFGFSIFCGLAVPNWVNKNPEKLQTGILQLDQVIQVLLTTGMFVGGFLGFVLDNTIPGSLEERGLLAWGEIQEDSEETPKASKVYGLPWGIGTKFCTSSCTRILPFWPRIDHHGDEVGASQLTLCSQTSSGKHPWSVTETKM
- Km [6]: 433 ± 113 µM
